Reference: ChEMBL document CHEMBL1201862, “PubChem BioAssay data set” (2004)
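1) Cells in 96-well plates. 2) Compound, 48 h, 5 concentrations. 3) Linear interpolation between surrounding doses. 4) Unreached endpoint = highest concentration. The concentration for 50% growth inhibition is given as GI50.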 The source made the active and inactive calls. No stated cut-off is given here; in the data, active = GI50 up to about 1.1 µM and inactive = higher.

Key:
Test in all cases: NCI-60 cell line screen, 48 h
HCT-116 = system: HCT-116
RPMI-8226 = system: RPMI-8226
SF-539 = system: SF-539
CAKI-1 = system: CAKI-1
CCRF-CEM = system: CCRF-CEM
SK-MEL-28 = system: SK-MEL-28
IGROV-1 = system: IGROV-1
DU-145 = system: DU-145
SF-268 = system: SF-268
HT-29 = system: HT-29
MOLT-4 = system: MOLT-4
SNB-19 = system: SNB-19
EKVX = system: EKVX
SW-620 = system: SW-620
OVCAR-4 = system: OVCAR-4
HL-60 = system: HL-60
LOX IMVI = system: LOX IMVI
COLO 205 = system: COLO 205
NCI-H226 = system: NCI-H226
Malme-3M = system: Malme-3M
NCI-H522 = system: NCI-H522
Hs-578T = system: Hs-578T
OVCAR-3 = system: OVCAR-3
HOP-62 = system: HOP-62
K562 = system: K562
MDA-N = system: MDA-N
A549 = system: A549
OVCAR-8 = system: OVCAR-8
U-251 = system: U-251
HOP-92 = system: HOP-92
KM12 = system: KM12
SF-295 = system: SF-295
TK-10 = system: TK-10
SK-MEL-2 = system: SK-MEL-2
HCT-15 = system: HCT-15
T47D = system: T47D
NCI-H23 = system: NCI-H23
786-0 = system: 786-0
NCI/ADR-RES = system: NCI/ADR-RES
A498 = system: A498
BT-549 = system: BT-549
PC-3 = system: PC-3
UO-31 = system: UO-31
UACC-62 = system: UACC-62
MDA-MB-231 = system: MDA-MB-231
OVCAR-5 = system: OVCAR-5
SK-MEL-5 = system: SK-MEL-5
ACHN = system: ACHN
MCF7 = system: MCF7
SN12C = system: SN12C
RXF 393 = system: RXF 393
MDA-MB-435 = system: MDA-MB-435
M14 = system: M14
UACC-257 = system: UACC-257
SK-OV-3 = system: SK-OV-3
SNB-75 = system: SNB-75
HCC 2998 = system: HCC 2998
NCI-H460 = system: NCI-H460
SR = system: SR

Measured: GI50

CNC(=O)c1ccccc1[S+]1c2cccc3cccc(c23)C(=O)N1C (stereo unspecified)
inactive: HCT-116 > 100 µM | RPMI-8226 > 100 µM | SF-539 > 100 µM | CAKI-1 > 100 µM | CCRF-CEM > 100 µM | SK-MEL-28 > 100 µM | IGROV-1 > 100 µM | DU-145 > 100 µM | SF-268 > 100 µM | HT-29 > 100 µM | MOLT-4 > 100 µM | SNB-19 > 100 µM | EKVX > 100 µM | SW-620 > 100 µM | OVCAR-4 > 100 µM | HL-60 > 100 µM | LOX IMVI > 100 µM | COLO 205 > 100 µM | NCI-H226 > 100 µM | Malme-3M > 100 µM | NCI-H522 > 100 µM | Hs-578T > 100 µM | OVCAR-3 > 100 µM | HOP-62 > 100 µM | K562 > 100 µM | MDA-N > 100 µM | A549 > 100 µM | OVCAR-8 > 100 µM | U-251 > 100 µM | HOP-92 > 100 µM | KM12 > 100 µM | SF-295 > 100 µM | TK-10 > 100 µM | SK-MEL-2 > 100 µM | T47D > 100 µM | NCI-H23 > 100 µM | 786-0 > 100 µM | NCI/ADR-RES > 100 µM | A498 > 100 µM | BT-549 > 100 µM | PC-3 > 100 µM | UO-31 > 100 µM | UACC-62 > 100 µM | MDA-MB-231 > 100 µM | OVCAR-5 > 100 µM | SK-MEL-5 > 100 µM | ACHN > 100 µM | MCF7 > 100 µM | SN12C > 100 µM | RXF 393 > 100 µM | MDA-MB-435 > 100 µM | M14 > 100 µM | UACC-257 > 100 µM
> 100 µM: HCT-15

O=C1OC(=O)c2cc(S(=O)(=O)c3ccc4c(c3)C(=O)OC4=O)ccc21
inactive: HCT-116 > 100 µM | RPMI-8226 > 100 µM | SF-539 > 100 µM | CAKI-1 > 100 µM | CCRF-CEM > 100 µM | SK-MEL-28 > 100 µM | IGROV-1 > 100 µM | DU-145 > 100 µM | SF-268 > 100 µM | HT-29 > 100 µM | SNB-19 > 100 µM | EKVX > 100 µM | SW-620 > 100 µM | OVCAR-4 > 100 µM | LOX IMVI > 100 µM | COLO 205 > 100 µM | NCI-H226 > 100 µM | Malme-3M 24.1 µM | NCI-H522 > 100 µM | Hs-578T > 100 µM | OVCAR-3 > 100 µM | HOP-62 > 100 µM | K562 > 100 µM | MDA-N > 100 µM | A549 > 100 µM | OVCAR-8 > 100 µM | U-251 > 100 µM | KM12 > 100 µM | SF-295 > 100 µM | TK-10 > 100 µM | SK-MEL-2 > 100 µM | T47D > 100 µM | NCI-H23 > 100 µM | 786-0 > 100 µM | NCI/ADR-RES > 100 µM | SK-OV-3 > 100 µM | SNB-75 26.1 µM | BT-549 > 100 µM | HCC 2998 > 100 µM | PC-3 > 100 µM | UO-31 > 100 µM | UACC-62 > 100 µM | MDA-MB-231 > 100 µM | OVCAR-5 > 100 µM | NCI-H460 > 100 µM | SK-MEL-5 > 100 µM | ACHN > 100 µM | MCF7 > 100 µM | SN12C > 100 µM | RXF 393 > 100 µM | MDA-MB-435 > 100 µM | M14 > 100 µM | UACC-257 > 100 µM
> 100 µM: HCT-15

COc1ccc2c(N=[N+]=[N-])c(-c3ccccc3)c(=O)oc2c1
56.6 µM: HCT-15
inactive: HCT-116 44.3 µM | RPMI-8226 20.8 µM | SF-539 > 100 µM | CAKI-1 30.1 µM | CCRF-CEM 36.1 µM | SK-MEL-28 > 100 µM | IGROV-1 > 100 µM | DU-145 65.6 µM | SF-268 78.5 µM | HT-29 32.1 µM | MOLT-4 21.5 µM | EKVX 39.8 µM | SW-620 > 100 µM | HL-60 22.5 µM | LOX IMVI 82.8 µM | COLO 205 56.8 µM | Malme-3M 33.3 µM | NCI-H522 26.1 µM | Hs-578T > 100 µM | HOP-62 > 100 µM | K562 40 µM | MDA-N 48.8 µM | A549 48.4 µM | OVCAR-8 77.1 µM | KM12 34.5 µM | SF-295 61.9 µM | TK-10 87.5 µM | T47D 22.8 µM | NCI-H23 24.5 µM | 786-0 > 100 µM | SK-OV-3 76.6 µM | SNB-75 > 100 µM | A498 45.9 µM | SR 22.2 µM | BT-549 31.4 µM | HCC 2998 92.3 µM | PC-3 52.7 µM | UACC-62 58.6 µM | MDA-MB-231 87.1 µM | NCI-H460 49.3 µM | SK-MEL-5 25.5 µM | ACHN 41.1 µM | MCF7 36.2 µM | SN12C 61.1 µM | MDA-MB-435 45.8 µM | M14 57 µM | UACC-257 29.6 µM
